Here are results for 3 compounds from patent publication US20210369768A1, “METAL DI-AMINO ACID CHELATES OR METAL TRI-AMINO ACID CHELATES” (Balchem Corporation, priority 2020, published 2021).

Peptide text beside a SMILES is read from it.

Series [1] can be described thus: Stability of the complex in solution via 1H NMR. In kind it is physicochemical. The following applies: 1H NMR in D2O. From the text: At 72 hrs, an observable upfield shift occurs, which may be due to isomer formation. There is no observable change in proton integration. NMR taken in D2O.
Series [2] has as its system Caco-2 cells.
Protocol: (§1) Magnesium uptake colorimetric assay kits were purchased from BioVision (Catalog #385-100). […] HEK-293 (ATCC® CRL-1573TM) cells, Caco-2 (ATCC® HTB-37TM) cells, and Dulbecco's Modified Eagle Medium (ATCC® 30-2002) were purchased from ATCC. Penicillin streptomycin (10,000 U/mL), fetal bovine serum (FBS), and trypsin/EDTA (0.25%) were purchased from Gibco™.
(§2) Caco-2 cells were cultured from Liquid N2 frozen stocks and rapidly thawed to RT using a water bath at 37° C.; cryopreservation media was removed with a micropipette after cells were pelleted via centrifugation for 8-10 minutes at 125 g. Cells were resuspended in 1 mL of room temperature DMEM and cultured in 14 mLs DMEM (total volume of 15 mLs) with a seeding density of 3.6×10^4 cells/cm^2 in a T-75 cm^2 culture flask and left to grow in an incubator at 37° C. and 5% CO2. Cells were sub-cultured at 90% confluency, and sub-culturing occurred a minimum of five times before use in uptake assays. When ready-to-use cultures were at 90% confluency, old DMEM media was pipetted off and 3-4 mLs of trypsin was added—the trypsinized culture flask was placed back in the incubator for 5-10 minutes to detach cells. Once detached, the culture flask was rinsed with 6-8 mLs of fresh DMEM to neutralize the trypsin -cells for uptake assays were counted utilizing a DeNovix CellDrop™. Once counted, cells were pelleted down via centrifugation at 125 g for 8-10 minutes, and the neutralized trypsin-media supernatant was pipetted off. Cells were resuspended in 5 mLs magnesium assay buffer for cellular uptake assay.
(§3) Cellular uptake data was collected at incubation times of 1 hr (required kit incubation time), 4 hrs (the amount of time required for uptake in the GI), and 24 hrs (the amount of time required for a complex to clear the GI).
(§4) Kinetics were evaluated utilizing the slope of the line of uptake of the complex in the Caco-2 cells.
Series [3] has as its system Caco-2 cells. The series can be described thus: Cellular uptake of magnesium complexes in Caco-2 cells (BioVision colorimetric magnesium uptake assay kit). The following applies: Example 12, FIG. 72.
Protocol: as §1, §2, §3, §4

For the compound `NCC(=O)NCC(=O)NCC(=O)[O-].[Mg+2].[OH-]` [Mg(G3), magnesium 2-[[2-[(2-aminoacetyl)amino]acetyl]amino]acetic acid chelate] (H-Gly-Gly-Gly-OH), the stability in solution result in series [1] is on record as “considerable stability for periods up to 72 hrs”. Besides, the “cellular uptake at 24 hrs” value with Caco-2 cells [2] was “cell saturation”.
In the case of `NCC(=O)[O-].NCC(=O)[O-].[Mg+2]` [MgBG, magnesium bisglycinate, reference compound], the “cellular uptake in CaCo-2 cell line relative to other magnesium complexes” value in the series with Caco-2 cells [3] is given as “significantly less cellular uptake than Mg(G3)”.
Same read-out and setting: then magnesium diglycine [MgG2], with “relatively linear uptake in the CaCo-2 cell line similar to that of both magnesium chloride (MgCl2) and magnesium bisglycinate (MgBG)”.
